Where a name gives a salt, the structure may show the parent alone.
Test system: T1, primary mouse cortical neurons
T1 construct: primary cortical neurons, DIV 10
Assay: cells
Parameters: Protection from NMDA-induced (30 uM, 10 min) neuronal death; Hoechst nuclear morphology by automated microscopy
Details: Cortical neurone, 20 h, read-out: % inhibition, inhibition of NMDA-induced cell death (protection score), 30 min pre-treatment
Experimental: On DIV 10, compounds were applied to the cells reaching an end concentration of 10 μM. Cells were incubated for 30 min at 37 °C, 5% CO2 before adding NMDA (30 μM). Cells were incubated for another 10 min in the incubator, then washed twice with defined minimal medium containing 10 μM of the respective compound and incubated for an additional 20 h before readout. Untreated (no NMDA) and NMDA-only stimulated wells were treated with 0.1% DMSO. […] After 15 min of incubation at room temperature, cells were washed twice with phosphate buffered saline. […] Dead neurons were identified by amorphous or shrunken nuclei using CellProfiler and CellProfiler Analyst software. For all cell death analyses the experimental unit (N) is defined as an independent experiment using an independent neuronal preparation. For each independent experiment, data from 3 replicate wells (i.e., from 36 images), representing an average of 3000 cells was analyzed per condition. The survival rate S was calculated by dividing the number of living cells by the total number of cells. The survival rate was then used to calculate the protection score according to Scompound−Svehicle/Suntreated−Svehicle×100=%protection , where ‘compound’ refers to compound + NMDA treatment, ‘vehicle’ refers to vehicle + NMDA treatment, and ‘untreated’ refers to DMSO control. […] As a proof of principle, we next used our assay to screen two commercially available drug libraries. In these screens, primary cortical cells were incubated with test compounds at 10 μM concentration for 30 min before addition of 30 μM NMDA. After 10 min NMDA treatment, cells were washed with fresh medium and kept in the presence of test compounds for 20 h until assessment of cell viability. […] This library covers structurally diverse drugs from several fields such as oncology, cardiology, immunology, and neurology/psychiatry.

Row | Structure (SMILES) | inhibition at 10 µM
1 | CC[C@H]1OC(=O)[C@H](C)[C@@H](O[C@H]2C[C@@](C)(OC)[C@@H](O)[C@H](C)O2)[C@H](C)[C@@H](O[C@@H]2O[C@H](C)C[C@H](N(C)C)[C@H]2O)[C@](C)(OC)C[C@@H](C)C(=O)[C@H](C)[C@@H](O)[C@]1(C)O [Clarithromycin (Biaxin, Klacid)] | -1.54%
2 | CCC[C@@H]1C[C@@H](C(=O)N[C@@H]([C@H]2O[C@H](SC)[C@H](O)[C@@H](O)[C@H]2O)[C@H](C)Cl)N(C)C1 [Clindamycin hydrochloride (Dalacin)] | 2.41%
3 | Nc1nc(Cl)nc2c1ncn2[C@@H]1O[C@H](CO)[C@@H](O)[C@@H]1F [Clofarabine] | -10.2%
4 | CCOC(=O)C(C)(C)Oc1ccc(Cl)cc1 [Clofibrate (Atromid-S)] | -1.89%
5 | CCN(CC)CCOc1ccc(C(=C(Cl)c2ccccc2)c2ccccc2)cc1 [Clomifene citrate (Serophene)] | -1.18%
6 | CN(C)CCCN1c2ccccc2CCc2ccc(Cl)cc21 [Clomipramine hydrochloride (Anafranil)] | -0.839%
7 | Clc1cccc(Cl)c1NC1=NCCN1 [Clonidine hydrochloride (Catapres)] | -1.98%
8 | COC(=O)[C@H](c1ccccc1Cl)N1CCc2sccc2C1 [Clopidogrel (Plavix)] | -12%
9 | Nc1cc(C(Cl)=C(Cl)Cl)c(S(N)(=O)=O)cc1S(N)(=O)=O [Clorsulon] | -1.66%
10 | Clc1ccccc1C(c1ccccc1)(c1ccccc1)n1ccnc1 [Clotrimazole (Canesten)] | -1.47%
11 | Cc1onc(-c2ccccc2Cl)c1C(=O)N[C@@H]1C(=O)N2[C@@H]1SC(C)(C)[C@@H]2C(=O)O [Cloxacillin sodium (Cloxacap)] | 0.144%
12 | CN1CCN(C2=Nc3cc(Cl)ccc3Nc3ccccc32)CC1 [Clozapine (Clozaril)] | -5.01%
13 | COC1=C(OC)C(=O)C(C/C=C(\C)CC/C=C(\C)CC/C=C(\C)CC/C=C(\C)CC/C=C(\C)CC/C=C(\C)CC/C=C(\C)CC/C=C(\C)CC/C=C(\C)CCC=C(C)C)=C(C)C1=O [Coenzyme Q10(CoQ10)] | 9.82%
14 | CC(=O)OCC(=O)[C@@]1(O)CC[C@H]2[C@@H]3CCC4=CC(=O)CC[C@]4(C)[C@H]3C(=O)C[C@@]21C [Cortisone acetate (Cortone)] | -0.736%
15 | C[C@H]1COC2=C1C(=O)C(=O)c1c2ccc2c1CCCC2(C)C [Cryptotanshinone] | -2.15%
16 | CN(C)c1ccc(C(=C2C=CC(=[N+](C)C)C=C2)c2ccc(N(C)C)cc2)cc1 [Crystal violet] | -3.37%
17 | C=C1C[C@@]2(O)O[C@@]3(C[C@H]2C(C)C)[C@@H](C)CC[C@@H]13 [Curcumol] | 7.41%
18 | N=c1ccn2c(n1)O[C@H]1[C@H](O)[C@@H](CO)O[C@H]12 [Cyclocytidine HCl] | -2.19%
19 | CN[C@@H](C)[C@H]1[C@H](O)C[C@@]2(C)[C@@H]3CC[C@H]4C(C)(C)[C@@H](NC)CC[C@@]45C[C@@]35CC[C@]12C [Cyclovirobuxin D (Bebuxine)] | 17.2%
20 | Nc1ccn([C@@H]2O[C@H](CO)[C@@H](O)[C@@H]2O)c(=O)n1 [Cytarabine] | 38.3%
21 | O=c1cccc2n1C[C@@H]1CNC[C@H]2C1 [Cytisine (Baphitoxine, Sophorine)] | -0.723%
22 | OC[C@@H](O)[C@@H](O)[C@H](O)[C@H](O)CO [D-Mannitol (Osmitrol)] | 5.76%
23 | CN(C)/N=N/c1nc[nH]c1C(N)=O [Dacarbazine (DTIC-Dome)] | -1.39%

Row | Structure (SMILES) | inhibition at 10 µM
24 | O=c1c(-c2ccc(O)cc2)coc2cc(O)ccc12 [Daidzein] | -2.08%
25 | CN(C)[C@@H](CCOc1cccc2ccccc12)c1ccccc1 [Dapoxetine hydrochloride (Priligy)] | -1.89%
26 | CCCCCCCCCC(=O)N[C@@H](Cc1c[nH]c2ccccc12)C(=O)N[C@H](CC(N)=O)C(=O)N[C@@H](CC(=O)O)C(=O)N[C@@H]1C(=O)NCC(=O)N[C@@H](CCCN)C(=O)N[C@@H](CC(=O)O)C(=O)N[C@H](C)C(=O)N[C@@H](CC(=O)O)C(=O)NCC(=O)N[C@H](CO)C(=O)N[C@@H]([C@H](C)CC(=O)O)C(=O)N[C@@H](CC(=O)c2ccccc2N)C(=O)O[C@@H]1C [Daptomycin] | -3.03%
27 | Cc1nc(Nc2ncc(C(=O)Nc3c(C)cccc3Cl)s2)cc(N2CCN(CCO)CC2)n1 [Dasatinib (BMS-354825)] | -9.79%
28 | Nc1ncn([C@H]2C[C@H](O)[C@@H](CO)O2)c(=O)n1 [Decitabine] | 11.3%
29 | CC(=O)OCC(=O)[C@@]12N=C(C)O[C@@H]1C[C@H]1[C@@H]3CCC4=CC(=O)C=C[C@]4(C)[C@H]3[C@@H](O)C[C@@]12C [Deflazacort (Calcort)] | -1.74%
30 | CC1(C)O[C@@H]2C[C@H]3[C@@H]4CCC5=CC(=O)C=C[C@]5(C)[C@H]4[C@@H](O)C[C@]3(C)[C@]2(C(=O)CO)O1 [Desonide] | 9.64%
31 | C[C@@H]1C[C@H]2[C@@H]3CCC4=CC(=O)C=C[C@]4(C)[C@@]3(F)[C@@H](O)C[C@]2(C)[C@@]1(O)C(=O)CO [Dexamethasone] | -9.25%
32 | C[C@@H](CN1CC(=O)NC(=O)C1)N1CC(=O)NC(=O)C1 [Dexrazoxane Hydrochloride] | -16.2%
33 | OC[C@H]1OC(O)[C@H](O)[C@@H](O)[C@@H]1O (stereo partly drawn) [Dextrose (D-glucose)] | -6.8%
34 | O=C(O)Cc1ccccc1Nc1c(Cl)cccc1Cl [Diclofenac] | -4.34%
35 | O=c1[nH]cnc2c1ncn2[C@H]1CC[C@@H](CO)O1 [Didanosine (Videx)] | 11.6%
36 | C[C@@H]1CC[C@H]2[C@@H](C)C(O)O[C@@H]3O[C@@]4(C)CC[C@@H]1[C@]32OO4 (stereo partly drawn) [Dihydroartemisinin (DHA)] | -4.3%
37 | O=C1c2c(O)cc(O)cc2O[C@H](c2cc(O)c(O)c(O)c2)[C@H]1O [Dihydromyricetin (Ampeloptin)] | 21.4%
38 | C[C@@H]1CC[C@@]2(OC1)O[C@H]1C[C@H]3[C@@H]4CC=C5C[C@@H](O[C@@H]6O[C@H](CO)[C@@H](O[C@@H]7O[C@@H](C)[C@H](O)[C@@H](O)[C@H]7O)[C@H](O)[C@H]6O[C@@H]6O[C@@H](C)[C@H](O)[C@@H](O)[C@H]6O)CC[C@]5(C)[C@H]4CC[C@]3(C)[C@H]1[C@@H]2C [Dioscin (Collettiside III)] | 32.2%
39 | C[C@@H]1CC[C@@]2(OC1)O[C@H]1C[C@H]3[C@@H]4CC=C5C[C@@H](O)CC[C@]5(C)[C@H]4CC[C@]3(C)[C@H]1[C@@H]2C [Diosgenin] | -1.47%
40 | COc1ccc(-c2cc(=O)c3c(O)cc(O)cc3o2)cc1O [Diosmetin (Luteolin 4-methyl ether)] | 8.81%
41 | COc1ccc(-c2cc(=O)c3c(O)cc(O[C@@H]4O[C@H](CO[C@@H]5O[C@@H](C)[C@H](O)[C@@H](O)[C@H]5O)[C@@H](O)[C@H](O)[C@H]4O)cc3o2)cc1O [Diosmin] | -0.0881%
42 | CN(C)CCOC(c1ccccc1)c1ccccc1 [Diphenhydramine HCl (Benadryl)] | 1.97%
43 | OCCN(CCO)c1nc(N2CCCCC2)c2nc(N(CCO)CCO)nc(N3CCCCC3)c2n1 [Dipyridamole (Persantine)] | -3.58%
44 | CCN(CC)C(=S)SSC(=S)N(CC)CC [Disulfiram (Antabuse)] | -13.6%
45 | CCCC(CCC)C(=O)O [Divalproex sodium] | 3.49%

From article PMC7489219 (Molecular Brain, 2020)
